In brackets after ≈: the same amount, converted by molar mass.
Conditions: buffer; pH 7.4; 200.0 µM

| SMILES | solubility kinetic |
| --- | --- |
| O=C(NC1CCN(S(=O)(=O)c2ccc(F)cc2)CC1)c1ccco1 | 17.5 µg/mL (≈ 49.7 µM) |
| C=CCn1c(N)cc(=O)nc1SCC(=O)Nc1ccccc1C(N)=O | 49.9 µg/mL (≈ 139 µM) |
| CCOP(=O)(c1ccccc1)C1(C#N)CC1 (stereo not drawn) | 23 µg/mL (≈ 97.8 µM) |
| Cn1c(=O)c2ccccc2n(CC(=O)NC2CCCC2)c1=O | 40.2 µg/mL (≈ 133 µM) |
| CCc1cccc2c(C(=O)C(NCCOC)c3ccccc3)c[nH]c12 (stereo not drawn) | > 50.5 µg/mL |
| COC(=O)c1ccc(S(=O)(=O)c2ccc(Cl)cc2)c(N)c1 | 1.2 µg/mL (≈ 3.68 µM) |
| N/C(CSc1ccccn1)=N\OCc1c(Cl)cccc1Cl | 29 µg/mL (≈ 84.7 µM) |
| CC1(C)CC(NC(=O)c2ccc(Cl)cc2)CC(C)(C)N1 | > 44.2 µg/mL |
| Cc1cc(NC(=O)Nc2ccc(Cl)cc2)no1 | 1.4 µg/mL (≈ 5.56 µM) |
| Oc1c(I)cc(Cl)c2cccnc12 | 0.8 µg/mL (≈ 2.62 µM) |
| COc1ccc(CNc2nccs2)cc1OC | > 37.5 µg/mL |
| Cc1cc(C(=O)NC(Cc2ccccc2)C(=O)O)c(C)o1 (stereo not drawn) | > 43.1 µg/mL |
| COC(=O)c1cc(Cl)nc2ccccc12 | 7.9 µg/mL (≈ 35.6 µM) |
| Nc1ccc(C(=O)O)cc1[N+](=O)[O-] | > 27.3 µg/mL |
| Cc1ccn2cc(-c3cccc(NC(=O)CCC(=O)O)c3)nc2c1 | > 48.5 µg/mL |
| COc1ccc(C(C)=O)cc1COC(=O)c1cccnc1SC | < 0.7 µg/mL |
| Cc1cccc(C)c1NC(=O)CNC(=O)c1cccnc1 | > 42.5 µg/mL |
| CCOc1ccc2oc(C(=O)OCC(=O)NC(=O)NC)c(C)c2c1 | 1.9 µg/mL (≈ 5.68 µM) |
| CN(C)S(=O)(=O)c1cccc(NC(=S)NCc2ccco2)c1 | > 50.9 µg/mL |
| COc1cccc(CC(=O)NCC2(N3CCCCC3)CCCCC2)c1 | > 51.7 µg/mL |
| O=C(COc1ccccc1Cl)NCCCNC(=O)c1cccnc1 | > 52.2 µg/mL |
| CC(=O)Nc1cccc(NC(=S)Nc2cccc(Cl)c2Cl)c1 | 26 µg/mL (≈ 73.4 µM) |
| Cc1ccc(NC(=O)c2ccc(Cl)cc2Cl)cc1O | 12 µg/mL (≈ 40.5 µM) |
| O=C(NCCCn1ccnc1)/C(=C/c1ccco1)NC(=O)c1cccs1 | 50.1 µg/mL (≈ 135 µM) |
| COc1ccc(NC(=O)CSc2nnc(N)s2)cc1S(=O)(=O)N1CCCCC1 | > 66.5 µg/mL |

| SMILES | solubility kinetic |
| --- | --- |
| CN(C)c1ccc(C2N(C)C(=O)c3ccccc3N2C)cc1 (stereo not drawn) | 40.9 µg/mL (≈ 138 µM) |
| Cc1ccc(Cl)c(OCC(=O)Nc2cccnc2)c1 | 15.6 µg/mL (≈ 56.4 µM) |
| O=c1[nH]c(=O)n(C2CCCCCC2)c(O)c1C=NCc1cccnc1 | 8.2 µg/mL (≈ 23.9 µM) |
| COc1cc2c(cc1OC)C(c1ccccc1C(F)(F)F)CC(=O)N2 (stereo not drawn) | < 0.8 µg/mL |
| Oc1cccc(C=Nc2cccc3ccccc23)c1O | 18.3 µg/mL (≈ 69.5 µM) |
| C/C(=N\OCc1ccc(C#N)cc1)c1ccccc1 | < 0.3 µg/mL |
| CC(C)C(=O)NC(CC(=O)O)c1ccccc1 (stereo not drawn) | > 35.3 µg/mL |
| CCCCCC(=O)NC(CC(=O)OC)c1ccc2c(c1)OCO2 (stereo not drawn) | > 48.2 µg/mL |
| CC1(C)CC(C(N)=S)CCO1 (stereo not drawn) | 23.5 µg/mL (≈ 136 µM) |
| COc1ccc(N2C(=O)CSC2c2ccccc2)cc1 (stereo not drawn) | 42.3 µg/mL (≈ 148 µM) |
| Cn1c(=O)c2cc3ccc(Cl)cc3nc2n(C)c1=O | 0.4 µg/mL (≈ 1.45 µM) |
| COc1ccccc1Nc1nc(N)nc(CN2CCC(C)CC2)n1 | > 49.3 µg/mL |
| O=C(COC(=O)CCC(=O)N1CCOCC1)Nc1ccc(Br)cc1Br | > 71.7 µg/mL |
| CCCCNC(=O)c1cc2c(C)cc(C)cc2[nH]1 | 2.2 µg/mL (≈ 9 µM) |
| COc1ccc(NC(=O)COC(=O)c2ccc([N+](=O)[O-])o2)cc1Cl | 19.2 µg/mL (≈ 54.1 µM) |
| Cc1cccc(C)c1OCCCn1ccnc1 | 20.1 µg/mL (≈ 87.3 µM) |
| CCN(CC)Cc1nc2sc(C)c(C)c2c(=O)[nH]1 | 34.9 µg/mL (≈ 132 µM) |
| Cc1cc2nc(Cl)c(Cl)nc2cc1C | 0.6 µg/mL (≈ 2.64 µM) |
| CN(Cc1nc2ccccc2s1)C(=O)c1ccc(F)cc1 | > 45.1 µg/mL |
| N#Cc1ccsc1NC(=O)COC(=O)c1ccc(Br)o1 | 10.5 µg/mL (≈ 29.6 µM) |
| Cc1cccc(Nc2ccc([N+](=O)[O-])cn2)c1 | 13.4 µg/mL (≈ 58.5 µM) |
| CC(=O)N1CCN(c2ccccc2NC(=O)c2cccs2)CC1 | > 49.4 µg/mL |
| COC(=O)c1cccc(NC(=S)Nc2ccccc2Cl)c1 | 41.4 µg/mL (≈ 129 µM) |
| O=C1c2ccccc2-c2nc3ccccc3cc21 | < 0.5 µg/mL |
| O=C(CCCCC(=O)Nc1ccc(F)cc1F)Nc1ccc(F)cc1F | 4.4 µg/mL (≈ 11.9 µM) |

| SMILES | solubility kinetic |
| --- | --- |
| CCOC(=O)c1cn2nc(N3CCCCC3)ccc2n1 | > 41.1 µg/mL |
| COc1ccccc1OCCC(=O)Nc1ccc2c(c1)OCO2 | > 47.3 µg/mL |
| CC(OC(=O)c1ccc2c(c1)NC(=O)CS2)C(=O)c1ccc(F)cc1 (stereo not drawn) | 18.1 µg/mL (≈ 50.4 µM) |
| Cc1ccccc1N1CCN(S(=O)(=O)c2cccs2)CC1 | 4 µg/mL (≈ 12.4 µM) |
| Cc1ccc(C)c(C(C)NC(=S)NC2CCCCC2)c1 (stereo not drawn) | 10.7 µg/mL (≈ 36.8 µM) |
| O=C(NCC(c1ccco1)N1CCCCC1)c1ccc(S(=O)(=O)Nc2ccccc2Cl)cc1 (stereo not drawn) | 17.7 µg/mL (≈ 36.3 µM) |
| Cc1cc2ccccn2c1C(=O)Nc1cccc(Cl)c1 | < 0.3 µg/mL |
| Cc1cc(C)cc(C(=O)NCC(=O)OCC(=O)NC2CC2)c1 | > 45.7 µg/mL |
| CCOC(=O)C1CCCN(C(=S)Nc2ccc(S(=O)(=O)N3CCOCC3)cc2)C1 (stereo not drawn) | > 66.2 µg/mL |
| Clc1nc(-c2ccccc2)ncc1Oc1ccccc1 | < 0.3 µg/mL |
| CCOc1cc(/C=C2\NC(=O)NC2=O)cc([N+](=O)[O-])c1O | > 44 µg/mL |
| COc1ccc(S(=O)(=O)N2CCOCC2)cc1NC(=O)COC(=O)CC1CC2CCC1C2 (stereo not drawn) | 11.3 µg/mL (≈ 24.2 µM) |
| O=C(c1cc2cc(F)ccc2[nH]1)N1CCC(Cc2ccccc2)CC1 | 1.3 µg/mL (≈ 3.86 µM) |
| O=C1Nc2cc(Br)ccc2C1(O)c1ccccc1O (stereo not drawn) | > 48 µg/mL |
| Fc1ccc(CNC2CCN(Cc3ccccc3)CC2)cc1 | 35.7 µg/mL (≈ 120 µM) |
| Cc1ccc2c3c([nH]c2c1)C(=O)CC(C)(C)S3 | < 0.5 µg/mL |
| COC(=O)c1ccc(CNC(=O)COC(=O)c2cccs2)cc1 | 10.1 µg/mL (≈ 30.3 µM) |
| O=C(CSC(=S)N1CCCC1)c1ccccc1 | < 0.6 µg/mL |
| CC1CCCCC1NC(=O)COC(=O)c1ccc2ccccc2n1 (stereo not drawn) | 7.1 µg/mL (≈ 21.8 µM) |
| COc1ccccc1NC(=O)Cn1nc(C)n2cccc2c1=O | > 46.8 µg/mL |
| Cn1c(=O)c2c(nc(SCc3ccc(F)cc3)n2C)n(C)c1=O | 2 µg/mL (≈ 5.98 µM) |
| CC(=O)c1ccc2noc(-c3cccc(F)c3)c2c1 | 6.5 µg/mL (≈ 25.5 µM) |
| O=C(NC1CCCCC1)c1ccc(-n2cncn2)c([N+](=O)[O-])c1 | > 47.3 µg/mL |
| CCOc1ccc2[nH]c3c(NCCC(C)C)ncnc3c2c1 | 0.6 µg/mL (≈ 2.01 µM) |
| Cc1cccc(C)c1OCCCN1CCOCC1.Cl | 35.5 µg/mL |

| SMILES | solubility kinetic |
| --- | --- |
| CCn1c(=NC(=O)C2COc3ccccc3O2)sc2c(C)ccc(OC)c21 (stereo not drawn) | < 0.4 µg/mL |
| O=C(CNC(=O)c1cccs1)NCCc1ccco1 | > 41.7 µg/mL |
| Cc1nn(C)c(C)c1CNC(=O)Nc1ccc2c(c1)OCO2 | > 45.3 µg/mL |
| Clc1ccc(Cn2cnc3ccccc32)cc1 | 27 µg/mL (≈ 111 µM) |
| CSc1ncccc1C(=O)OCC(=O)c1ccc[nH]1 | 9.7 µg/mL (≈ 35.1 µM) |
| O=C(O)c1cc2c(cc1NC(=O)C1CCCC1)OCCO2 | > 43.7 µg/mL |
| OC(CN1CCN(c2ccc(C(F)(F)F)cn2)CC1)c1ccccc1 (stereo not drawn) | 1.8 µg/mL (≈ 5.12 µM) |
| CC(C)[C@H](NC(=O)c1ccccc1F)C(=O)NC1CCCCCCC1 | 7.5 µg/mL (≈ 21.5 µM) |
| Cc1cccc(-n2c(C)nc3ccc(Cl)cc3c2=O)c1 | 22.1 µg/mL (≈ 77.6 µM) |
| O=C(CCc1nc(-c2ccc(Cl)cc2)no1)NC1CCCC1 | 6.4 µg/mL (≈ 20 µM) |
| O=C(c1cnc2ccccc2n1)N1CCN(c2ccc(C(F)(F)F)cn2)CC1 | 1 µg/mL (≈ 2.58 µM) |
| Cc1ccc(N(CCC#N)C(=O)COC(=O)c2ccccn2)cc1 | > 48.5 µg/mL |
| COc1ccc(NS(=O)(=O)c2ccc3c(c2)CCO3)cc1 | 45 µg/mL (≈ 147 µM) |
| COc1cccc(N2C(=O)/C(=C\c3cccs3)NC2=S)c1 | 4.1 µg/mL (≈ 13 µM) |
| Cc1ccc(Nc2cc(C)nc(-c3ccccc3)n2)cc1 | 5.2 µg/mL (≈ 18.9 µM) |
| COc1ccc(Br)cc1/C=C/C(=O)NCC(=O)O | > 47.1 µg/mL |
| CCc1ccc(Nc2ncnc3nc[nH]c23)cc1 | > 35.9 µg/mL |
| O=C(c1ccccc1)N1CCN(S(=O)(=O)N2CCCCCC2)CC1 | > 52.7 µg/mL |
| C=CCOC(=O)/C(=C/c1cccnc1)NC(=O)c1ccccc1 | 43.4 µg/mL (≈ 141 µM) |
| CCC(C)n1c(O)c(C=NCCN2CCOCC2)c(=O)[nH]c1=S (stereo not drawn) | > 51.1 µg/mL |
| CC(N)Cc1c[nH]c2c1ccc1ccccc12.Cl (stereo not drawn) | 33.9 µg/mL |
| O=C(OCC(=O)N1CCCC1)c1c[nH]c2ccccc12 | > 40.8 µg/mL |
| O=C(O/N=C(/c1ccccc1)c1ccncc1)c1ccccc1[N+](=O)[O-] | 8.3 µg/mL (≈ 23.9 µM) |
| CCOC(=O)CNC(=S)N(Cc1ccccc1)Cc1ccccc1F | 11.7 µg/mL (≈ 32.5 µM) |
| CCN(Cc1ccccc1)C(=O)CSc1n[nH]c(N)n1 | > 43.7 µg/mL |

| SMILES | solubility kinetic |
| --- | --- |
| CCN(CC)c1ccc(CNCCc2ccc(F)cc2)cc1.Cl | > 50.5 µg/mL |
| Cc1cc(C)cc(N2C(=O)CSC2c2ccccn2)c1 (stereo not drawn) | > 42.7 µg/mL |
| FC(F)(F)c1ccccc1-c1nc(-c2ccncc2)no1 | 7.6 µg/mL (≈ 26.1 µM) |
| CCOC(=O)CSc1ccc2ccccc2n1 | 19.5 µg/mL (≈ 78.8 µM) |
| COc1cccc(OC)c1C(=O)O/N=C(\N)c1ccncc1 | 42.2 µg/mL (≈ 140 µM) |
| CCC1CCc2c(sc(NC(=O)c3cnccn3)c2C(N)=O)C1 (stereo not drawn) | 1.8 µg/mL (≈ 5.45 µM) |
| CCNC(=O)CSc1nc2sccc2c(=O)n1-c1ccccc1 | > 51.8 µg/mL |
| CC(C)(C)C(=O)/C=C1\SCC(=O)N1CC(=O)N1CCN(c2ccccc2)CC1 | 33.7 µg/mL (≈ 83.9 µM) |
| O=C(c1c(F)cccc1F)N(Cc1ccccc1)Cc1ccccc1 | 8.4 µg/mL (≈ 24.9 µM) |
| Nc1nonc1C(=O)N1CCCCC1 | 28.2 µg/mL (≈ 144 µM) |
| O=C(O)Cn1cc(C=C2C(=O)NC(=O)NC2=O)c2ccccc21 | > 47 µg/mL |
| O=C(c1ccco1)N1CCn2cccc2C1c1ccccc1 (stereo not drawn) | 42 µg/mL (≈ 144 µM) |
| CN(CC(=O)N(C)CC(=O)Nc1c(Cl)cccc1Cl)Cc1ccccc1F | > 61.8 µg/mL |
| COc1cc(C)c(CN2CCSCC2)cc1C | 12.1 µg/mL (≈ 48.1 µM) |
| O=C(NC1CC1)c1cc2cc3ccccc3nc2s1 | 0.9 µg/mL (≈ 3.35 µM) |
| CCSc1ncc(Cl)c(C(=O)Nc2ccccc2F)n1 | 0.5 µg/mL (≈ 1.6 µM) |
| CCS(=O)(=O)Nc1cc2c3c(c1)CCN3C(=O)CC2 | > 42.1 µg/mL |
| O=C(CSc1nccc(=O)[nH]1)NCc1ccco1 | > 39.8 µg/mL |
| CCC(=O)Nc1cc2c3c(c1)CCN3C(=O)CC2 | 35.3 µg/mL (≈ 144 µM) |
| Cc1cc(C)c(S(=O)(=O)Nc2nccs2)c(C)c1 | 36.1 µg/mL (≈ 128 µM) |
| Cc1ccc(Cn2cc(CCC(=O)O)c3ccccc32)cc1 | > 44 µg/mL |
| Cc1ccsc1C1CC(=O)Nc2ccccc2S1 (stereo not drawn) | 35.6 µg/mL (≈ 129 µM) |
| Cn1cc(C(=O)C(=O)NC2CCCCC2)c2ccccc21 | 31.8 µg/mL (≈ 112 µM) |
